Experimental data from patent publication US20210329919A9, “SYNTHESIS AND ANTI-CANCER ACTIVITY OF COMMUNESIN ALKALOIDS” (Massachusetts Institute of Technology, priority 2019, published 2021).
Converted amounts (≈) assume the structure as drawn. Like-named read-outs stand apart in the source and are kept apart here.

Legend:
[1] = system: A549 (lung carcinoma); assay: Cell viability assay (Cell Titer-Glo), A549; type: cell-based, human; details: read-out: IC50 (μM) A549
Description: (§1) Cells were grown in media supplemented with fetal bovine serum (FBS) and antibiotics ([…] and 100 U/mL streptomycin). Specifically, experiments were performed using the following cell lines and media compositions: HeLa (cervical adenocarcimona) and A549 (lung carcinoma) were grown in RPMI-1640+10% FBS; HCT-116 (colorectal carcinoma) was grown in DMEM+10% FBS; DU-145 (prostate carcinoma) and MCF7 (breast adenocarcinoma) were grown in EMEM+10% FBS. Cells were incubated at 37° C. in a 5% CO2, 95% humidity atmosphere.
(§2) Cells were plated at 2000 cells/well into duplicate assay plates in 50 L media into 384-well white, opaque, tissue-culture treated plates and allowed to adhere overnight at 37° C./5% CO2. Compounds were solubilized in DMSO as 1000× stocks and 100 nl was pin-transferred to cells (V&P pin tool mounted on Tecan Freedom Evo MCA96). Compounds were tested in 10-pt, 2-fold dilution with concentrations tested between 1 nM-20 μM for most compounds, except where indicated. DMSO (32 wells of 384-wells) was used as vehicle control. After 72 hours of incubation at 37° C./5% CO2, 10 L Cell Titer-Glo (Promega) was added to each well and plates were incubated at room temperature for 10 minutes before the luminescence was read on a Tecan M1000 plate reader. Cell Titer-Glo measures ATP levels of cells as a surrogate for cell viability. All compound-treated wells was normalized to the DMSO control averages and expressed as a % of DMSO viability. IC50 values were determined from the dose curves using Spotfire (Perkin Elmer).

[2] = system: DU-145 (prostate carcinoma); assay: Cell viability assay (Cell Titer-Glo), DU-145; type: cell-based, human; details: read-out: IC50 (μM) DU-145
Description: as §1, §2

[3] = system: HCT-116 (colorectal carcinoma); assay: Cell viability assay (Cell Titer-Glo), HCT-116; type: cell-based, human; details: read-out: IC50 (μM) HCT-116
Description: as §1, §2

[4] = system: HeLa (cervical adenocarcinoma); assay: Cell viability assay (Cell Titer-Glo), HeLa; type: cell-based, human; details: read-out: IC50 (μM) HeLa
Description: as §1, §2

[5] = system: MCF7 (breast adenocarcinoma); assay: Cell viability assay (Cell Titer-Glo), MCF7; type: cell-based, human; details: read-out: IC50 (μM) MCF7
Description: as §1, §2

[6] = system: A549, DU-145, HCT116, HeLa and MCF7 cell lines; assay: Cytotoxicity across all five cancer cell lines (text summary of Table 1); details: for decrease in potency/activity relative to (−)-communesin B (4): N8-H or N8-formyl vs N8-methyl
Description: as §1, §2
With samples of all known communesin alkaloids and a selection of unnatural derivatives in hand, the anticancer activity for this entire class of natural products was explored. While previous isolation reports have evaluated the activity of selected natural communesins, no comprehensive comparison of the entire class of alkaloids across multiple cell lines has been performed.

[7] = system: P-388 lymphocytic leukemia cells; details: cultured mouse P-388 lymphocytic leukemia cells; cited from earlier work
[8] = system: third instar larvae of silkworms; details: cited from earlier work; for insecticidal activity compared with communesin B (4): silkworms
[9] = system: vasculogenesis; details: in vivo; cited from earlier work
[10] = system: human leukemia cell lines; details: array of human leukemia cell lines; cited from earlier work
[11] = Homo sapiens, A549, cytotoxicity after 72 h of compound treatment, Cell Titer-Glo (ATP levels)
[12] = Homo sapiens, DU-145, cytotoxicity after 72 h of compound treatment, Cell Titer-Glo (ATP levels)
[13] = Homo sapiens, HCT-116, cytotoxicity after 72 h of compound treatment, Cell Titer-Glo (ATP levels)
[14] = Homo sapiens, cytotoxicity after 72 h of compound treatment, Cell Titer-Glo (ATP levels)
[15] = Homo sapiens, MCF7, cytotoxicity after 72 h of compound treatment, Cell Titer-Glo (ATP levels)
[16] = cytotoxicity after 72 h of compound treatment, Cell Titer-Glo (ATP levels)

C/C=C/C=C/C(=O)N1CC[C@@]23c4ccccc4N[C@@H]4N(C=O)c5cccc6c5[C@@]42CCN([C@@H]13)[C@@H]6[C@H]1OC1(C)C [(+)-6, (+)-communesin D]
IC50 ([1]; Homo sapiens, A549, 72 h): > 125 µM
IC50 ([2]; Homo sapiens, DU-145, 72 h): 84 µM
IC50 ([3]; Homo sapiens, HCT-116, 72 h): 111 µM
IC50 ([4]; Homo sapiens, 72 h): 63 µM
IC50 ([5]; Homo sapiens, MCF7, 72 h): > 125 µM
decrease in potency/activity relative to (−)-communesin B (4) [6]: two- to threefold decrease in activity

CC(=O)N1CC[C@@]23c4ccccc4N[C@@H]4N(C=O)c5cccc6c5[C@@]42CCN([C@@H]13)[C@@H]6[C@H]1OC1(C)C [(+)-43, (+)-N8-formyl communesin E]
IC50 [1, 11]: > 250 µM
IC50 [2, 12]: > 250 µM
IC50 [3, 13]: > 250 µM
IC50 [4, 14]: > 125 µM
IC50 [5, 15]: > 250 µM
cytotoxic potency across all cell lines (in words) [6]: principally inactive

CC(=O)N1CC[C@@]23c4ccccc4N[C@@H]4N(C)c5cccc6c5[C@@]42CCN([C@@H]6C=C(C)C)[C@@H]13 [(−)-1, (−)-communesin F]
IC50 [1, 16]: 117 µM
IC50 [2, 16]: 119 µM
IC50 [3, 16]: > 125 µM
IC50 [4, 16]: 115 µM
IC50 [5, 16]: 84 µM

CC(=O)N1CC[C@@]23c4ccccc4N[C@@H]4N(C)c5cccc6c5[C@@]42CCN([C@@H]13)[C@@H]6[C@H]1OC1(C)C [(−)-2, (−)-communesin A]
IC50 [1, 11]: > 125 µM
IC50 [2, 12]: > 250 µM
IC50 [3, 13]: > 250 µM
IC50 [4, 14]: > 125 µM
IC50 [5, 15]: > 250 µM
cytotoxic potency across all cell lines (in words) [6]: principally inactive

CC(=O)N1CC[C@@]23c4ccccc4N[C@@H]4Nc5cccc6c5[C@@]42CCN([C@@H]13)[C@@H]6[C@H]1OC1(C)C [(−)-3, (−)-communesin E]
IC50 [1, 11]: > 500 µM
IC50 [2, 12]: > 500 µM
IC50 [3, 13]: > 500 µM
IC50 [4, 14]: > 500 µM
IC50 [5, 15]: > 500 µM
cytotoxic potency across all cell lines (in words) [6]: principally inactive

C/C=C/C=C/C(=O)N1CC[C@@]23c4ccccc4N[C@@H]4N(C)c5cccc6c5[C@@]42CCN([C@@H]13)[C@@H]6[C@H]1OC1(C)C [(−)-4, (−)-communesin B]
IC50 [1, 11]: 56 µM
IC50 [2, 12]: 45 µM
IC50 [3, 13]: 60 µM
IC50 [4, 14]: 47 µM
IC50 [5, 15]: 34 µM

C/C=C/C=C/C(=O)N1CC[C@@]23c4ccccc4N[C@@H]4Nc5cccc6c5[C@@]42CCN([C@@H]13)[C@@H]6[C@H]1OC1(C)C [(−)-5, (−)-communesin C]
IC50 ([1]; Homo sapiens, A549, 72 h): 115 µM
IC50 ([2]; Homo sapiens, DU-145, 72 h): 82 µM
IC50 ([3]; Homo sapiens, HCT-116, 72 h): 106 µM
IC50 ([4]; Homo sapiens, 72 h): 94 µM
IC50 ([5]; Homo sapiens, MCF7, 72 h): 65 µM
decrease in potency/activity relative to (−)-communesin B (4) [6]: two- to threefold decrease in activity

CCC(=O)N1CC[C@]23c4ccccc4N[C@H]4N(C)c5cccc6c5[C@]42CCN([C@H]6[C@@H]2OC2(C)C)[C@H]13 [(−)-7, (−)-communesin G]
IC50 [1, 16]: > 125 µM
IC50 [2, 16]: > 125 µM
IC50 [3, 16]: > 125 µM
IC50 [4, 16]: > 125 µM
IC50 [5, 16]: > 250 µM
cytotoxic potency across all cell lines (in words) [6]: principally inactive

CCCC(=O)N1CC[C@]23c4ccccc4N[C@H]4N(C)c5cccc6c5[C@]42CCN([C@H]6[C@@H]2OC2(C)C)[C@H]13 [(−)-8, (−)-communesin H]
IC50 [1, 16]: > 125 µM
IC50 [2, 16]: > 125 µM
IC50 [3, 16]: 109 µM
IC50 [4, 16]: 82 µM
IC50 [5, 16]: 90 µM

CCC[C@H](O)CC(=O)N1CC[C@@]23c4ccccc4N[C@@H]4N(C)c5cccc6c5[C@@]42CCN([C@@H]13)[C@@H]6[C@H]1OC1(C)C [(−)-10, (−)-communesin I]
IC50 [1, 16]: 120 µM
IC50 [2, 16]: > 125 µM
IC50 [3, 16]: > 125 µM
IC50 [4, 16]: 120 µM
IC50 [5, 16]: 90 µM

C/C=C/C=C/C(=O)N1CC[C@@]23c4ccccc4N[C@@H]4N(C)c5cccc6c5[C@@]42CCN([C@@H]13)[C@@H]6[C@H]1OC1(C)C [(−)-communesin B (4)]
cytotoxic potency across all cell lines (in words) [6]: highest potency of all the natural products tested

C/C=C/C=C/C(=O)N1CC[C@@]23c4ccccc4N[C@@H]4N(C)c5cccc6c5[C@@]42CCN([C@@H]13)[C@@H]6[C@H]1OC1(C)C [(−)-communesin B]
cytotoxic potency across all cell lines (in words) ([6]; A549, DU-145, HCT116, HeLa, MCF7): most potent natural isolate

CC(=O)N1CC[C@@]23c4ccccc4N[C@@H]4N(C)c5cccc6c5[C@@]42CCN([C@@H]13)[C@@H]6[C@H]1OC1(C)C [Communesin A (2), (−)-communesin A]
ED50, cytotoxicity [7]: 3.5 µg/mL (≈ 7.67 µM)
insecticidal activity compared with communesin B (4) [8]: lower insecticidal activities
vasculogenetic activity [9]: moderate vasculogenetic activity

C/C=C/C=C/C(=O)N1CC[C@@]23c4ccccc4N[C@@H]4N(C)c5cccc6c5[C@@]42CCN([C@@H]13)[C@@H]6[C@H]1OC1(C)C [Communesin B (4), communesin B]
ED50, cytotoxicity [7]: 0.45 µg/mL (≈ 0.885 µM)
LD50, insecticidal ([8]; third instar larvae of silkworms, oral administration): 5 μg/g of diet

CC(=O)N1CC[C@@]23c4ccccc4N[C@@H]4N(C)c5cccc6c5[C@@]42CCN([C@@H]6C=C(C)C)[C@@H]13 [Communesin F (1), (−)-communesin F]
insecticidal activity compared with communesin B (4) [8]: lower insecticidal activities

C/C=C/C=C/C(=O)N1CC[C@@]23c4ccccc4N[C@@H]4Nc5cccc6c5[C@@]42CCN([C@@H]13)[C@@H]6[C@H]1OC1(C)C [communesin C (5), (−)-communesin C]
anti-proliferative activity [10]: moderate anti-proliferative activity

C/C=C/C=C/C(=O)N1CC[C@@]23c4ccccc4N[C@@H]4N(C=O)c5cccc6c5[C@@]42CCN([C@@H]13)[C@@H]6[C@H]1OC1(C)C [communesin D (6), (+)-communesin D]
anti-proliferative activity [10]: moderate anti-proliferative activity
insecticidal activity compared with communesin B (4) [8]: lower insecticidal activities
